Measured values taken from patent publication US11007248B2, “Suppression of allergic lung inflammation and hyperreactivity” (The Regents of the University of California, priority 2013, dated 2021).
Where no end group is shown, it is not given here. The star is where a group is joined. Myristoyl = CCCCCCCCCCCCCC(=O)*

Assays:
[1] = tested on: OVA-allergic mouse airways; assay: Airway resistance by invasive body plethysmography, murine OVA-allergic model; type: in vivo; settings: peptide i.p. before OVA i.n. challenge
Description: (§1) FIG. 2A: Murine OVA-allergic model.
Experiments were carried out as described in FIG. 2A. At day 19, animals were collected for airway resistance as measured by invasive body plethysmography. Data are expressed as the mean±SEM values (n=3). # p<0.05, PBS+OVA compared with the PBS control. *p<0.05, MPS +OVA compared with the PBS+OVA group.

[2] = tested on: OVA-allergic mouse airways; assay: Lung section histology (H&E, PAS), murine OVA-allergic model; type: in vivo; settings: for allergic inflammation associated with allergen/ovalbumin-induced allergic airway disease: mouse
Description: as §1
FIGS. 4A-4B show MPS suppressed mucous cell metaplasia (stained by periodic acid stain (PAS)) and inflammatory cells in OVA-allergic mouse airways. Experiments were carried out as described in FIG. 2A. At day 19, animals were sacrificed and lung tissues were fixed for paraffin sections. FIG. 4A: Lung sections were stained by H&E, and PAS staining. Original magnification ×200. FIG. 4B: Quantification of the numbers of H&E-stained cells and PAS-stained cells, and the score of the Masson trichrome staining are presented in bar graphs. Data are expressed as mean±SEM values (n=6).

[3] = tested on: phospho-STAT6; assay: IL-13-induced signaling in primary NHBE cells, western blot: phospho-STAT6; type: cell-based, human; settings: air-liquid interface, peptide 50 μM for 4 hrs, then IL-13 20 ng/ml for one hour
[4] = tested on: phospho-MARCKS; assay: IL-13-induced signaling in primary NHBE cells, western blot: phospho-MARCKS; type: cell-based, human; settings: air-liquid interface, peptide 50 μM for 4 hrs, then IL-13 20 ng/ml for one hour
[5] = tested on: antigen-presenting cells, dendritic cells (DCs); assay: Homing of antigen-presenting dendritic cells to mediastinal lymph nodes, flow cytometry, Ova-induced allergic mouse asthma; type: in vivo; settings: allergic animal model; OVA-DQ challenge day 15-18; CD11c+ cells in mediastinal lymph nodes
Description: For detection of antigen specific DCs migration, mice were challenged with 150 μg OVA-DQ (Life Technologies, Grand Island, N.Y.) for one time per day at day 15-18. Cells were isolated from the mediastinal lymph nodes and lungs. Cells were stained with CD11c conjugated PEC-Cy7 (BD Bioscience, San Jose, Calif.) and analyzed by flow cytometry. Peptides used in this study were (wild type) MPS, A-MPS (mutant 2 in the figure) and D-MPS (mutant 1 in the FIG. 8).

[6] = tested on: p-Ser-159/163 MARCKS; settings: MPS 154 μg/mouse/day i.p. day 10-14 prior to OVA i.n. exposure; IHC of lung tissue sections
[7] = tested on: inflammatory cell types in OVA-allergic mouse airways
[8] = tested on: BALF inflammatory cytokines (IL-4, IL-5, IL-13, eotaxin; IFN-γ); settings: OVA-allergic mouse airways; MPS 154 μg/mouse/day i.p.; ELISA
[9] = tested on: OVA-specific IgE; settings: OVA-allergic mouse; MPS 154 μg/mouse/day i.p.; ELISA
[10] = tested on: mucus secretion; settings: previously reported, U.S. Patent Application Publication No. 2009/00220581; cited from earlier work
[11] = day 19, MPS+OVA vs PBS+OVA p<0.05
[12] = OVA-allergic mouse airways, MPS 154 μg/mouse/day i.p., day 19

KKKKKRFAFKKAFKLAGFAFKKNKK [A-MPS]
airway hyper-reactivity (airway resistance) [1, 11]: able to suppress
allergic inflammation associated with allergen/ovalbumin-induced allergic airway disease [2]: able to suppress
suppression of IL-13-induced phospho-STAT6 elevation [3]: very effective in the suppression
suppression of IL-13-induced phospho-MARCKS elevation [4]: very effective in the suppression
lymph node homing of antigen presenting cells [5]: inhibited

KKKKKRFDFKKDFKLDGFDFKKNKK [D-MPS]
airway hyper-reactivity (airway resistance) [1, 11]: not seen
allergic inflammation associated with allergen/ovalbumin-induced allergic airway disease [2]: not seen
suppression of IL-13-induced phospho-STAT6 elevation [3]: not
suppression of IL-13-induced phospho-MARCKS elevation [4]: not
lymph node homing of antigen presenting cells [5]: no suppressive effects

KKKKKRFSFKKSFKLSGFSFKKNKK [MPS]
airway hyper-reactivity (airway resistance) [1, 11]: suppressed
airway hyper-reactivity (airway resistance) ([1]; day 19, MPS+OVA vs PBS+OVA p<0.05, listed as (wild-type) MPS): able to suppress
inflammatory cells in lung tissue (H&E) [2, 12]: suppressed
mucous cell metaplasia (PAS stain) [2, 12]: suppressed
allergic inflammation associated with allergen/ovalbumin-induced allergic airway disease [2]: able to suppress
suppression of IL-13-induced phospho-STAT6 elevation [3]: very effective in the suppression
suppression of IL-13-induced phospho-MARCKS elevation [4]: very effective in the suppression
lymph node homing of antigen presenting cells [5]: inhibited
MARCKS phosphorylation in OVA sensitizing mice [6]: effectively suppress
eosinophils (inflammatory response) ([7]; BALF differential cell counts): reduction
presence of various inflammatory cell types in BALF ([7]; MPS 154 μg/mouse/day i.p., day 19): suppressed
Th1 cytokine (IFN-γ) in BALF [8]: not
Th2 cytokines (IL-4, IL-5, IL-13, eotaxin) in BALF [8]: suppressed specifically
serum OVA-specific IgE [9]: suppressed

myristic acid—KKKKKRFSFKKSFKLSGFSFKKNKK (Myristoyl-KKKKKRFSFKKSFKLSGFSFKKNKK) [myristic acid-wild type MPS disclosed in U.S. 2009/00220581]
mucus secretion [10]: increased
